Columns and labels:
[1] = system: A-to-I RNA editing reporter (ADAR) in A375; test: A-to-I PepTile (REPTILE) screen: A-to-I editing of dsRNA hairpin reporter by NGS; format: cell-based, human; conditions: for % A-to-I editing (IFNα): IFNα 6000 U/ml for 48 hours; for % A-to-I editing (Basal): no treatment
From the text: (§1) FIGS. 12A-12D. A-to-I PepTile screen. (A) Composition of A-to-I PepTile linrary screen, and schematic description of the lentiviral expression vector. (B) Experimental workflow. A375 cells were transduced at low MOI, and then treated or not with IFNα for 48 hrs. RNA was extracted and Peptide_ADARreporter RNA species were amplified and sequenced by NGS. (C) Dot plot of A-to-I PepTile library effect on A-to-I editing with or without IFNα treatment. Red line is the mean A-to-I editing of all the 8088 peptides (>100 read counts) no treatment: 25.75% IFNα: 37.6%. (D) Dot plot of A-to-I PepTile library fitness effect upon IFNα for 48 hrs.
FIGS. 17A-17F show A-to-I RNA Editing PiTile (REPTILE) screen in A375. (A) A-to-I RNA Editing PiTile (REPTILE) library design consist of fragmentation of all known ADAR1, ADAR2 interactors and all human double stranded RNA-binding protein into 40 amino acid long peptide. This library was then cloned into a lentivirus vector that also encode a DNA-encoded RNA loop reporter (A-to-I Rep) that is edited by ADAR proteins in cells at the RNA level. When the construct is expressed, the RNA loop gets edited on a single Adenosine, while the 40-mer peptide get expressed at the protein level. Then we can measure the impact of the peptide expression on the editing rate of the RNA loop reporter by sequencing (NGS and Sanger). (B) Experimental workflow of REPTILE screen in A375 cell line. Cells were transduced with the REPTILE library, and then treated for 48 hours with IFNα. Following the treatment, RNA was harvested, converted into cDNA and amplicon library containing peptide Identity (barcode) linked to the RNA loop reporter were prepared for NGS. (C) Result of the A375 REPTILE screen in the no treatment condition. Each dot represents a unique peptide that is associated with an A-to-I editing rate that was measured on the RNA loop. (D) Result of the A375 REPTILE screen in the IFNα condition. Each dot represents a unique peptide that is associated with an A-to-I editing rate that was measured on the RNA loop. Red line represent the A-to-I editing mean, Dash blue line represent 2 times the standard deviation of the % A-to-I editing across all the datasets. This cutoff was used to defined peptides hits that modulate RNA A-to-I editing. (E) Peptide A-to-I Inhibitor Hits intersection between no treatment (% A-to-I editing<15%) and IFNα (% A-to-I editing<27%) conditions. (F) Peptide A-to-I Enhancers Hits intersection between no treatment (% A-to-I editing>36%) and IFNα (% A-to-I editing>47%) conditions.
Provided herein is a screening methodology to measure the effect of small peptide on A-to-I RNA editing in situ and screen thousands of peptides in a single experiment. First, a library of peptides with the potential of impairing A-to-I editing was designed and built. ADAR enzymes edit RNA only on double-stranded RNA structures and via ADAR's double stranded RNA-Binding Domain (dsRBD). […] The A-to-I PepTile library is composed of 19 Human proteins having dsRBD and 34 known protein-protein interactors of ADAR1/2. All these proteins were tiled into 40-mer peptides every 4 amino acids (FIG. 12A). To measure A-to-I editing, a biosensor consisting of a 71 bp dsRNA hairpin structure that gets A-to-I edited at a rate of 25% in A375 melanoma cells, and ~37% upon IFNα treatment was used. This A-to-I editing reporter is fused with DNA sequence encoding for a peptide from the A-to-I PepTile library. The A-to-I PepTile plasmid pool (10304 elements) was used to produced lentiviruses and transduced A375 cells at a low multiplicity of infection (MOI) (FIG. 12B). A part of the infected cells was treated with IFNα at 6000 U/ml for 48 hours, and then bulk RNA of the basal and treated condition was harvested. RNA was then retrotranscribed into cDNA and sequenced by Next-Generation Sequencing (NGS). […]

A375 cells = test: A-to-I PepTile screen: fitness effect upon IFNα (PepTile abundance untreated vs treated); format: cell-based, human
From the text: as §1
Provided herein is a screening methodology to measure the effect of small peptide on A-to-I RNA editing in situ and screen thousands of peptides in a single experiment. First, a library of peptides with the potential of impairing A-to-I editing was designed and built. ADAR enzymes edit RNA only on double-stranded RNA structures and via ADAR's double stranded RNA-Binding Domain (dsRBD). […] The A-to-I PepTile library is composed of 19 Human proteins having dsRBD and 34 known protein-protein interactors of ADAR1/2. All these proteins were tiled into 40-mer peptides every 4 amino acids (FIG. 12A). To measure A-to-I editing, a biosensor consisting of a 71 bp dsRNA hairpin structure that gets A-to-I edited at a rate of 25% in A375 melanoma cells, and ~37% upon IFNα treatment was used. This A-to-I editing reporter is fused with DNA sequence encoding for a peptide from the A-to-I PepTile library. The A-to-I PepTile plasmid pool (10304 elements) was used to produced lentiviruses and transduced A375 cells at a low multiplicity of infection (MOI) (FIG. 12B). A part of the infected cells was treated with IFNα at 6000 U/ml for 48 hours, and then bulk RNA of the basal and treated condition was harvested. RNA was then retrotranscribed into cDNA and sequenced by Next-Generation Sequencing (NGS). With the sequencing data, the A-to-I editing percentage of the RNA reporter for each PepTile is calculated since both elements are encoded on the same transcript. Moreover, with this screen one can also measure the abundance of the PepTiles between the untreated and treated conditions and determine Fitness score associated to every PepTile. To ensure a robust and more accurate A-to-I editing % estimation a cut-off of 100 read counts was set for each PepTile. […] SEQ ID NOs: 2125-2147 are A-to-I peptide inhibitors and SEQ ID NOs: 2148-2210 are A-to-I activators. In addition, 117 PepTiles were identified that either synergize (SEQ ID NOs: 2211-2243) or protect (SEQ ID NOs: 2244-2327) to IFNα-induced cell death (FIG. 12D and Table 5). These PepTiles are potential new therapeutic agents that can modulate the Interferon pathway. They may be beneficial in treating inflammatory conditions and may also enhance the effectiveness of cancer immunotherapy through synergistic effects.

[2] = IFNα 6000 U/ml for 48 hours vs untreated

Sequence	% A-to-I editing (IFNα) [1]	% A-to-I editing (Basal) [1]	Fitness Score IFNα (A375 cells; [2])	Fitness Score IFNα (A375 cells; A375, PepTile abundance upon IFNα treatment, negative = synthetic lethal, positive = protector)
MGELSSADEKRYRALKRTAERELLMNADVICCTCVGAGDPR [UPF1_147]	24.68%	13.30%	-0.63	–
MGFRGNSGGDYRGPSGGYRGSGGFQRGGGRGAYGTGYFGQG [DHX9_307]	47.59%	40.04%	1.50	–
MGLSPSIDTLDHIRALDRLQEVPHEGPMCDLLWSDPDDRGG [PPP2CB_43]	62.33%	46.04%	-0.38	–
MGPGDAVRRVLECVATGTLLTDGPGLQDPCERDQTDALEPM [ZFR2_208]	51.37%	37.66%	0.67	–
MGRRSSGGGRYRNRSPSDSDMEDYSPPPSLSEVARKMKKKE [NIPBL_285]	47.59%	42.29%	1.59	–
MIIYDEYMMDTVISLLTGLSDSQVRAFRHTSTLAAMKLMTA [STAG1_49]	48.18%	44.91%	0.55	–
MIQDPAQAEAYTIYWLVAALAPLVAAPPRPSQGRLAGREWS [UBE2I_32]	47.26%	44.43%	-0.02	–
MKECVDHLSRDEDEEKLVASLWGAERCLRVLESVTVHNPEN [WAPAL_208]	50.33%	50.48%	1.55	–
MKEHMDAINHDTKELEKMTNRQGMLLKKKEECMKKIRELGS [SMC3_228]	23.22%	13.27%	-3.54	-3.54
MKKNIAAERKEAKQEKEEADRYQRLKDEVVRAQVQLQLFKL [SMC1A_48]	26.12%	11.19%	1.61	–
MKTPIQVLHEYGMKTKNIPVYECERSDVQIHVPTFTFRVTV [PRKRA_9]	48.95%	43.02%	-0.21	–
MKVPAVPVQWGNCGDTGTRSAGPLRRNYNFIAAVVEKVAPS [HTRA4_36]	25.56%	12.55%	0.18	–
MLANFGPRINDIKRIIQSREREMKDLKEKMNQVEDEVFEEF [SMC1A_186]	56.93%	55.39%	0.69	–
MLEQCNTELKKYSHVNKKALDQFVNFSEQKEKLIKRQEELD [SMC3_243]	47.01%	42.74%	-0.61	–
MLPERLEVNGRESEEENLNKSEISQVFEIALKRNLPVNFEV [STAU1_42]	18.40%	11.00%	0.46	–
MLRYFDEKELELMLCGMQEIDMSDWQKSTIYRHYTKNSKQI [WWP2_185]	25.97%	13.42%	-0.08	–
MMGGPLPPHLALKAENNSEVGASGYGVPGPTWDRGANLKDY [DHX9_28]	54.35%	49.65%	1.46	–

Reference: US20260285924A1, “PEPTIDE THERAPEUTICS” (priority 2023, published 2026)
